{"source": "patent US7094787B2", "about": "“Compositions for regulating desire for smoking” (Taiyo Kagaku Co., Ltd., priority 2000, dated 2006)", "system": "mice", "format": "in vivo", "conditions": "oral administration at 5 g/kg weight", "text": "The composition of the present invention is based on action for suppressing the craving for smoking that has been found for the theanine for the first time. The theanine has been known to be a main ingredient of sapidity in tea and used as a food additive for the sapidity. […] There is no limitation in an amount of addition based on the Food Hygiene Law. Further, unlike a conventional nicotine preparation, since there is no dependence, the composition of the present invention can suppress the craving for smoking safely and effectively."}
{"smiles": "CCNC(=O)CC[C@H](N)C(=O)O", "note": "[theanine, γ-glutamyl ethylamide]", "values": [{"measurement": "death in acute toxicity test", "result": "no case of death"}]}
